Measurements: US10640506B2, “Cyclobutyl substituted pyrrolopyridine and pyrrolopyrimidines derivatives as JAK inhibitors” (Incyte Corporation, priority 2010, dated 2020)
Read-outs that look alike come from different tables or passages of the source.

Key:
[1] = biological target: human JAK1 (a.a. 837-1142) (Homo sapiens, UniProt P23458); test: In vitro JAK kinase assay (HTRF, phosphorylation of biotinylated peptide), JAK1; assay type: biochemical
Summary of the method: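 Phosphorylation of a biotinylated peptide was run at room temperature for 1 hour using the N-terminally His-tagged JAK1 kinase domain (837-1142) from insect cells. After an EDTA stop, Eu-Py20 and SA-APC gave an HTRF read; values are binned potency ranges.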

[2] = biological target: T1, JAK2 (a.a. 828-1132) (Homo sapiens, UniProt O60674); test: In vitro JAK kinase assay (HTRF, phosphorylation of biotinylated peptide), JAK2; assay type: biochemical
T1 construct: JAK2 (a.a. 828-1132); His tag (N)
Summary of the method: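 HTRF detection (Eu-Py20, SA-APC, 40 min) of biotinylated-peptide phosphorylation, following a 1 hour room-temperature reaction quenched with 45 mM EDTA. Enzymes: insect-cell-expressed N-terminal His-tagged JAK1 (837-1142) and JAK2 (828-1132) catalytic domains. Activities reported in ranged categories.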

[3] = Table A, 1 mM ATP, read-out: JAK1 IC50
[4] = Table A, 1 mM ATP, read-out: JAK2 IC50
[5] = Table B, 1 mM ATP, read-out: JAK1 IC50
[6] = Table B, 1 mM ATP, read-out: JAK2 IC50

human JAK1 (a.a. 837-1142), sequence (P23458 849-1154): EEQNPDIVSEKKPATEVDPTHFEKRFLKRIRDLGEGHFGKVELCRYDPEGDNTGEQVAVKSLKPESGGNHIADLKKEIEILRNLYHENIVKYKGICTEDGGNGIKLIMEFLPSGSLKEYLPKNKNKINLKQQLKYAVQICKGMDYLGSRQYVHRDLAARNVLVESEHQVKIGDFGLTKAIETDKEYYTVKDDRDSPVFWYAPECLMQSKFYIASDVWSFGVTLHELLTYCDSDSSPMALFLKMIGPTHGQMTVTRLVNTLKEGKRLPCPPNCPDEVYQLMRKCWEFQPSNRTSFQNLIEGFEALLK
T1 sequence (O60674 828-1132): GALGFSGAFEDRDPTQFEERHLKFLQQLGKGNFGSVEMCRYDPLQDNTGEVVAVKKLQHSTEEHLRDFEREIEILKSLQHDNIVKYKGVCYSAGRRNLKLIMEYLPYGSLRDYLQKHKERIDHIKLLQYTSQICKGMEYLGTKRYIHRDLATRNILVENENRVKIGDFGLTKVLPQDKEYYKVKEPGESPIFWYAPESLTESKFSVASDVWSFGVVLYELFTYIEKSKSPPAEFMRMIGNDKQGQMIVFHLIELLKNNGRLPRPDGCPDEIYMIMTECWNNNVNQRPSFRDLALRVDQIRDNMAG

CC(C)c1nccc(C(=O)N2CCN([C@H]3C[C@@](CC#N)(n4cc(-c5ncnc6[nH]ccc56)cn4)C3)CC2)n1 [Example 24a, {cis-3-{4-[(2-isopropylpyrimidin-4-yl)carbonyl]piperazin-1-yl}-1-[4-(7H-pyrrolo[2,3-d]pyrimidin-4-yl)-1H-pyrazol-1-yl]cyclobutyl}acetonitrile]
IC50 [1, 3]: 10 to 25 nM | IC50 [2, 4]: > 100 nM

N#CC[C@]1(n2cc(-c3ncnc4[nH]ccc34)cn2)C[C@H](N2CCN(C(=O)c3nc(C(F)(F)F)cs3)CC2)C1 [Example 13b, [trans-1-[4-(7H-pyrrolo[2,3-d]pyrimidin-4-yl)-1H-pyrazol-1-yl]-3-(4-{[4-(trifluoromethyl)-1,3-thiazol-2-yl]carbonyl}piperazin-1-yl)cyclobutyl]acetonitrile]
IC50 [1, 5]: < 10 nM | IC50 [2, 6]: 25 to 100 nM

N#CC[C@]1(n2cc(-c3ncnc4[nH]ccc34)cn2)C[C@H](N2CCN(C(=O)N[C@H]3CCC[C@@H]3O)CC2)C1 (racemic) [Example 88, 4-{trans-3-(cyanomethyl)-3-[4-(7H-pyrrolo[2,3-d]pyrimidin-4-yl)-1H-pyrazol-1-yl]cyclobutyl}-N-(2-hydroxycyclopentyl)piperazine-1-carboxamide]
IC50 ([1]; Table F, 1 mM ATP): < 10 nM | IC50 ([2]; Table F, 1 mM ATP): 25 to 100 nM

CN(C)c1ccc(CN2CCN([C@H]3C[C@@](CC#N)(n4cc(-c5ncnc6[nH]ccc56)cn4)C3)CC2)c(F)c1C#N [Example 2a, 3-[(4-{cis-3-(cyanomethyl)-3-[4-(7H-pyrrolo[2,3-d]pyrimidin-4-yl)-1H-pyrazol-1-yl]cyclobutyl}piperazin-1-yl)methyl]-6-(dimethylamino)-2-fluorobenzonitrile]
IC50 [1, 3]: < 10 nM | IC50 [2, 4]: 25 to 100 nM

C[C@H]1CCCN1C(=O)N1CCN([C@H]2C[C@](CC#N)(n3cc(-c4ncnc5[nH]ccc45)cn3)C2)CC1 [Example 4b, {trans-3-(4-{[(2S)-2-methylpyrrolidin-1-yl]carbonyl}piperazin-1-yl)-1-[4-(7H-pyrrolo[2,3-d]pyrimidin-4-yl)-1H-pyrazol-1-yl]cyclobutyl}acetonitrile]
IC50 [1, 5]: < 10 nM | IC50 [2, 6]: > 100 nM

N#CCC1(n2cc(-c3ncnc4[nH]ccc34)cn2)CC(N2CCC(Oc3cc(CCO)nc(C(F)(F)F)n3)CC2)C1 (single isomer, unassigned; peak 2) [Example 164, peak 2, {cis-3-(4-{[6-(2-hydroxyethyl)-2-(trifluoromethyl)pyrimidin-4-yl]oxy}piperidin-1-yl)-1-[4-(7H-pyrrolo[2,3-d]pyrimidin-4-yl)-1H-pyrazol-1-yl]cyclobutyl}acetonitrile]
IC50 ([1]; read-out: JAK1 IC50 (nM) at 1 mM ATP, Table F, listed as 164, peak 2): 25 to 100 nM | IC50 ([2]; read-out: JAK2 IC50 (nM) at 1 mM ATP, Table F): > 100 nM

CN(C)Cc1cc(OC2CCN([C@H]3C[C@](CC#N)(n4cc(-c5ncnc6[nH]ccc56)cn4)C3)CC2)cc(C(F)(F)F)c1 [Example 138, {trans-3-{4-[3-[(Dimethylamino)methyl]-5-(trifluoromethyl)phenoxy]piperidin-1-yl}-1-[4-(7H-pyrrolo[2,3-d]pyrimidin-4-yl)-1H-pyrazol-1-yl]cyclobutyl}acetonitrile]
IC50 ([1]; Table F, 1 mM ATP): 10 to 25 nM | IC50 ([2]; Table F, 1 mM ATP): > 100 nM

CN(C)C(=O)N1CCN([C@H]2C[C@](CC#N)(n3cc(-c4ncnc5[nH]ccc45)cn3)C2)CC1 [Example 32, 4-{trans-3-(cyanomethyl)-3-[4-(7H-pyrrolo[2,3-d]pyrimidin-4-yl)-1H-pyrazol-1-yl]cyclobutyl}-N,N-dimethylpiperazine-1-carboxamide]
IC50 [1, 5]: < 10 nM | IC50 [2, 6]: > 100 nM

N#CC[C@]1(n2cc(-c3ncnc4[nH]ccc34)cn2)C[C@H](N2CCN(C(=O)c3cc(CN)nc(C(F)(F)F)n3)CC2)C1 [Example 54, {trans-3-(4-{[6-(aminomethyl)-2-(trifluoromethyl)pyrimidin-4-yl]carbonyl}piperazin-1-yl)-1-[4-(7H-pyrrolo[2,3-d]pyrimidin-4-yl)-1H-pyrazol-1-yl]cyclobutyl}acetonitrile]
IC50 ([1]; Table F, 1 mM ATP): < 10 nM | IC50 ([2]; Table F, 1 mM ATP): 25 to 100 nM

N#CC[C@]1(n2cc(-c3ncnc4[nH]ccc34)cn2)C[C@H](N2CCC(Oc3cc(CN4CC(O)C4)cc(C(F)(F)F)n3)CC2)C1 [Example 157, {trans-3-(4-{[4-[(3-hydroxyazetidin-1-yl)methyl]-6-(trifluoromethyl)pyridin-2-yl]oxy}piperidin-1-yl)-1-[4-(7H-pyrrolo[2,3-d]pyrimidin-4-yl)-1H-pyrazol-1-yl]cyclobutyl}acetonitrile]
IC50 ([1]; Table F, 1 mM ATP): < 10 nM | IC50 ([2]; Table F, 1 mM ATP): 25 to 100 nM

N#CC[C@]1(n2cc(-c3ncnc4[nH]ccc34)cn2)C[C@H](N2CCC(Oc3cc(CN4CCCC4)cc(C(F)(F)F)n3)CC2)C1 [Example 158, {trans-3-(4-{[4-(pyrrolidin-1-ylmethyl)-6-(trifluoromethyl)pyridin-2-yl]oxy}piperidin-1-yl)-1-[4-(7H-pyrrolo[2,3-d]pyrimidin-4-yl)-1H-pyrazol-1-yl]cyclobutyl}acetonitrile]
IC50 ([1]; Table F, 1 mM ATP): < 10 nM | IC50 ([2]; Table F, 1 mM ATP): 25 to 100 nM

N#CC[C@]1(n2cc(-c3ncnc4[nH]ccc34)cn2)C[C@H](N2CCN(C(=O)NC(C(F)(F)F)C(F)(F)F)CC2)C1 [Example 152, 4-{trans-3-(Cyanomethyl)-3-[4-(7H-pyrrolo[2,3-d]pyrimidin-4-yl)-1H-pyrazol-1-yl]cyclobutyl}-N-[2,2,2-trifluoro-1-(trifluoromethyl)ethyl]piperazine-1-carboxamide]
IC50 ([1]; Table F, 1 mM ATP): < 10 nM | IC50 ([2]; Table F, 1 mM ATP): > 100 nM

CCNC(=O)N1CCN([C@H]2C[C@](CC#N)(n3cc(-c4ncnc5[nH]ccc45)cn3)C2)CC1 [Example 81, 4-{trans-3-(cyanomethyl)-3-[4-(7H-pyrrolo[2,3-d]pyrimidin-4-yl)-1H-pyrazol-1-yl]cyclobutyl}-N-ethylpiperazine-1-carboxamide]
IC50 ([1]; Table F, 1 mM ATP): < 10 nM | IC50 ([2]; Table F, 1 mM ATP): 25 to 100 nM

N#CC[C@]1(n2cc(-c3ncnc4[nH]ccc34)cn2)C[C@@H](N2CCN(C(=O)c3ncc(C(F)(F)F)cc3F)CC2)C1 [Example 27, {cis-3-(4-{[3-fluoro-5-(trifluoromethyl)pyridin-2-yl]carbonyl}piperazin-1-yl)-1-[4-(7H-pyrrolo[2,3-d]pyrimidin-4-yl)-1H-pyrazol-1-yl]cyclobutyl}acetonitrile]
IC50 [1, 3]: < 10 nM | IC50 [2, 4]: 25 to 100 nM

N#CC[C@]1(n2cc(-c3ncnc4[nH]ccc34)cn2)C[C@H](N2CCC(Oc3cc(CN)cc(C(F)(F)F)n3)CC2)C1 [Example 129, {trans-3-(4-{[4-(aminomethyl)-6-(trifluoromethyl)pyridin-2-yl]oxy}piperidin-1-yl)-1-[4-(7H-pyrrolo[2,3-d]pyrimidin-4-yl)-1H-pyrazol-1-yl]cyclobutyl}acetonitrile]
IC50 ([1]; Table F, 1 mM ATP): < 10 nM | IC50 ([2]; Table F, 1 mM ATP): 25 to 100 nM

CC[C@@H](C)NC(=O)N1CCN([C@H]2C[C@](CC#N)(n3cc(-c4ncnc5[nH]ccc45)cn3)C2)CC1 [Example 102, 4-{trans-3-(cyanomethyl)-3-[4-(7H-pyrrolo[2,3-d]pyrimidin-4-yl)-1H-pyrazol-1-yl]cyclobutyl}-N-[(1R)-1-methylpropyl]piperazine-1-carboxamide]
IC50 ([1]; Table F, 1 mM ATP): < 10 nM | IC50 ([2]; Table F, 1 mM ATP): 25 to 100 nM

N#CC[C@]1(n2cc(-c3ncnc4[nH]ccc34)cn2)C[C@H](N2CCC(Oc3cc(CN)nc(C(F)(F)F)n3)CC2)C1 [Example 147, {trans-3-(4-{[6-(aminomethyl)-2-(trifluoromethyl)pyrimidin-4-yl]oxy}piperidin-1-yl)-1-[4-(7H-pyrrolo[2,3-d]pyrimidin-4-yl)-1H-pyrazol-1-yl]cyclobutyl}acetonitrile]
IC50 ([1]; Table F, 1 mM ATP): 10 to 25 nM | IC50 ([2]; Table F, 1 mM ATP): 25 to 100 nM

N#CC[C@]1(n2cc(-c3ncnc4[nH]ccc34)cn2)C[C@H](N2CCC(Oc3cc(CN4CCOC4=O)cc(C(F)(F)F)n3)CC2)C1 (single isomer, unassigned) [Example 165, peak 2, {trans-3-(4-{[4-[(2-oxo-1,3-oxazolidin-3-yl)methyl]-6-(trifluoromethyl)pyridin-2-yl]oxy}piperidin-1-yl)-1-[4-(7H-pyrrolo[2,3-d]pyrimidin-4-yl)-1H-pyrazol-1-yl]cyclobutyl}acetonitrile]
IC50 ([1]; Table F, 1 mM ATP): < 10 nM | IC50 ([2]; Table F, 1 mM ATP): 25 to 100 nM

CC(C)(CO)NCc1cc(OC2CCN([C@H]3C[C@](CC#N)(n4cc(-c5ncnc6[nH]ccc56)cn4)C3)CC2)nc(C(F)(F)F)c1 [Example 153, {trans-3-(4-{[4-{[(2-hydroxy-1,1-dimethylethyl)amino]methyl}-6-(trifluoromethyl)pyridin-2-yl]oxy}piperidin-1-yl)-1-[4-(7H-pyrrolo[2,3-d]pyrimidin-4-yl)-1H-pyrazol-1-yl]cyclobutyl}acetonitrile]
IC50 ([1]; Table F, 1 mM ATP): < 10 nM | IC50 ([2]; Table F, 1 mM ATP): 25 to 100 nM

N#CC[C@]1(n2cc(-c3ncnc4[nH]ccc34)cn2)C[C@@H](N2CCN(C(=O)c3cccc(C(F)(F)F)n3)CC2)C1 [Example 20a, {cis-1-[4-(7H-pyrrolo[2,3-d]pyrimidin-4-yl)-1H-pyrazol-1-yl]-3-(4-{[6-(trifluoromethyl)pyridin-2-yl]carbonyl}piperazin-1-yl)cyclobutyl}acetonitrile]
IC50 [1, 3]: < 10 nM | IC50 [2, 4]: 25 to 100 nM

N#CC[C@]1(n2cc(-c3ncnc4[nH]ccc34)cn2)C[C@H](N2CCN(C(=O)c3cccc(C(F)F)n3)CC2)C1 [Example 21b, {trans-3-(4-{[6-(difluoromethyl)pyridin-2-yl]carbonyl}piperazin-1-yl)-1-[4-(7H-pyrrolo[2,3-d]pyrimidin-4-yl)-1H-pyrazol-1-yl]cyclobutyl}acetonitrile]
IC50 [1, 5]: < 10 nM | IC50 [2, 6]: 10 to 25 nM
